Source: ChEMBL document CHEMBL1155915, “Anticonvulsant activity of some xanthone derivatives” (Bioorg Med Chem, 2008)
Active and inactive are the calls of the source. The calls are words filed in the database; no cut-off is given here.

Experiments:
[1] = system: Mus musculus; experiment: Anticonvulsant activity against maximal electroshock-induced seizures in mouse at 300 mg/kg, ip after 4 hrs; type: functional, organism-based; design: dose 300 mg/kg
[2] = system: Mus musculus; experiment: Neurotoxicity in mouse at 30 mg/kg, ip after 0.5 hrs by rotarod test; type: toxicity, organism-based; design: dose 30 mg/kg, route intraperitoneal; conditions: in vivo
[3] = system: Mus musculus; experiment: Anticonvulsant activity against maximal electroshock-induced seizures in mouse at 30 mg/kg, ip after 4 hrs; type: functional, organism-based; design: dose 30 mg/kg
[4] = system: Mus musculus; experiment: Anticonvulsant activity against scMet-induced seizures in mouse at 100 mg/kg, ip after 0.5 hrs; type: functional, organism-based; design: dose 100 mg/kg
[5] = system: Mus musculus; experiment: Neurotoxicity in mouse at 30 mg/kg, ip after 4 hrs by rotarod test; type: toxicity, organism-based; design: dose 30 mg/kg, route intraperitoneal; conditions: in vivo
[6] = system: Mus musculus; experiment: Anticonvulsant activity against maximal electroshock-induced seizures in mouse at 100 mg/kg, ip after 0.5 hrs; type: functional, organism-based; design: dose 100 mg/kg
[7] = system: Mus musculus; experiment: Anticonvulsant activity against scMet-induced seizures in mouse at 300 mg/kg, ip after 4 hrs; type: functional, organism-based; design: dose 300 mg/kg
[8] = system: Mus musculus; experiment: Anticonvulsant activity against scMet-induced seizures in mouse at 100 mg/kg, ip after 4 hrs; type: functional, organism-based; design: dose 100 mg/kg
[9] = system: Mus musculus; experiment: Anticonvulsant activity against scMet-induced seizures in mouse at 30 mg/kg, ip after 4 hrs; type: functional, organism-based; design: dose 30 mg/kg
[10] = system: Mus musculus; experiment: Anticonvulsant activity against scMet-induced seizures in mouse at 30 mg/kg, ip after 0.5 hrs; type: functional, organism-based; design: dose 30 mg/kg
[11] = system: Mus musculus; experiment: Anticonvulsant activity against maximal electroshock-induced seizures in mouse at 100 mg/kg, ip after 4 hrs; type: functional, organism-based; design: dose 100 mg/kg
[12] = system: Mus musculus; experiment: Anticonvulsant activity against maximal electroshock-induced seizures in mouse at 30 mg/kg, ip after 0.5 hrs; type: functional, organism-based; design: dose 30 mg/kg
[13] = system: Mus musculus; experiment: Anticonvulsant activity against scMet-induced seizures in mouse at 300 mg/kg, ip after 0.5 hrs; type: functional, organism-based; design: dose 300 mg/kg
[14] = system: Mus musculus; experiment: Neurotoxicity in mouse at 100 mg/kg, ip after 4 hrs by rotarod test; type: toxicity, organism-based; design: dose 100 mg/kg, route intraperitoneal; conditions: in vivo
[15] = system: Mus musculus; experiment: Anticonvulsant activity against maximal electroshock-induced seizures in mouse at 300 mg/kg, ip after 0.5 hrs; type: functional, organism-based; design: dose 300 mg/kg
[16] = system: Mus musculus; experiment: Neurotoxicity in mouse at 300 mg/kg, ip after 0.5 hrs by rotarod test; type: toxicity, organism-based; design: dose 300 mg/kg, route intraperitoneal; conditions: in vivo
[17] = system: Mus musculus; experiment: Neurotoxicity in mouse at 300 mg/kg, ip after 4 hrs by rotarod test; type: toxicity, organism-based; design: dose 300 mg/kg, route intraperitoneal; conditions: in vivo
[18] = system: Mus musculus; experiment: Neurotoxicity in mouse at 100 mg/kg, ip after 0.5 hrs by rotarod test; type: toxicity, organism-based; design: dose 100 mg/kg, route intraperitoneal; conditions: in vivo

With `C[C@H](O)CNCc1ccc2oc3cc(Cl)ccc3c(=O)c2c1` the Activity [1] was “inactive”, the Neurotoxicity [2] was “Not Active” and the Activity [3] was “Active”. The Activity [4] was “inactive”, the Neurotoxicity [5] was “Not Active” and the Activity [6] was “Active”. The Activity [7] was “inactive”, the Activity [8] was “inactive” and the Activity [9] was “inactive”. For the same molecule, the Activity [10] was “inactive”, the Activity [11] was “Active” and the Activity [12] was “inactive”. For the same molecule, the Activity [13] was “inactive”, the Neurotoxicity [14] was “Not Active” and the Activity [15] was “Active”.

In the case of `CN(CCO)Cc1ccc2oc3cc(Cl)ccc3c(=O)c2c1`, the Neurotoxicity [2] is reported as “Not Active”, the Activity [3] is reported as “inactive” and the Activity [4] is reported as “inactive”. For the same molecule, the Neurotoxicity [5] was “Not Active”, the Activity [7] was “inactive” and the Activity [8] was “inactive”. For the same molecule, the Activity [9] was “inactive”, the Activity [10] was “inactive” and the Activity [11] was “inactive”. The Activity [12] was “inactive”, the Activity [13] was “inactive” and the Neurotoxicity [16] was “Neurotoxic”. For the same molecule, the Neurotoxicity [14] was “Not Active”, the Activity [15] was “inactive” and the Neurotoxicity [17] was “Neurotoxic”.

In the case of `O=c1c2ccc(Cl)cc2oc2ccc(CNCCCCCO)cc12`, the Activity [1] is reported as “Active”, the Activity [3] is reported as “inactive” and the Activity [4] is reported as “inactive”. The Neurotoxicity [5] was “Not Active”, the Activity [7] was “inactive” and the Activity [8] was “inactive”. The Activity [9] was “inactive”, the Activity [10] was “inactive” and the Activity [11] was “inactive”. For the same molecule, the Activity [12] was “inactive”, the Activity [13] was “inactive” and the Neurotoxicity [16] was “Neurotoxic”. For the same molecule, the Neurotoxicity [14] was “Not Active” and the Activity [15] was “Active”.

With `O=c1c2ccc(Cl)cc2oc2ccc(CNCCO)cc12` the Activity [1] was “Active”, the Activity [3] was “inactive” and the Activity [4] was “inactive”. The Neurotoxicity [5] was “Not Active”, the Activity [7] was “inactive” and the Activity [8] was “inactive”. The Activity [9] was “inactive”, the Activity [10] was “inactive” and the Activity [11] was “inactive”. For the same molecule, the Activity [12] was “inactive”, the Activity [13] was “inactive” and the Neurotoxicity [14] was “Not Active”. The Activity [15] was “Active” and the Neurotoxicity [17] was “Not Active”.

In the case of `CC(CO)NC(=O)c1ccc2oc3ccccc3c(=O)c2c1` (stereo not given), the Activity [1] is reported as “inactive”, the Neurotoxicity [2] is reported as “Not Active” and the Activity [3] is reported as “inactive”. For the same molecule, the Activity [4] was “inactive”, the Neurotoxicity [5] was “Not Active” and the Activity [6] was “inactive”. For the same molecule, the Activity [7] was “inactive”, the Activity [8] was “inactive” and the Activity [9] was “inactive”. For the same molecule, the Activity [10] was “inactive”, the Activity [11] was “inactive” and the Activity [12] was “inactive”. The Activity [13] was “inactive”, the Neurotoxicity [18] was “Not Active” and the Neurotoxicity [16] was “Not Active”. For the same molecule, the Neurotoxicity [14] was “Not Active”, the Activity [15] was “inactive” and the Neurotoxicity [17] was “Not Active”.

`NC(=O)CNC(=O)c1ccc2oc3ccccc3c(=O)c2c1` was tested, and the Activity [1] was “inactive”, the Neurotoxicity [2] was “Not Active” and the Activity [3] was “inactive”. The Activity [4] was “inactive”, the Neurotoxicity [5] was “Not Active” and the Activity [6] was “inactive”. For the same molecule, the Activity [7] was “inactive”, the Activity [8] was “inactive” and the Activity [9] was “inactive”. For the same molecule, the Activity [10] was “inactive”, the Activity [11] was “inactive” and the Activity [12] was “inactive”. The Activity [13] was “inactive”, the Neurotoxicity [18] was “Not Active” and the Neurotoxicity [16] was “Not Active”. For the same molecule, the Neurotoxicity [14] was “Not Active”, the Activity [15] was “inactive” and the Neurotoxicity [17] was “Not Active”.

With `C[C@@H](O)CNCc1ccc2oc3cc(Cl)ccc3c(=O)c2c1` the Activity [1] was “inactive”, the Activity [3] was “Active” and the Activity [4] was “inactive”. For the same molecule, the Activity [6] was “Active”, the Activity [7] was “inactive” and the Activity [8] was “inactive”. The Activity [9] was “inactive”, the Activity [10] was “inactive” and the Activity [11] was “Active”. For the same molecule, the Activity [12] was “inactive”, the Activity [13] was “inactive” and the Neurotoxicity [16] was “Neurotoxic”. The Activity [15] was “Active” and the Neurotoxicity [17] was “Neurotoxic”.

`CC(CCl)N(C)Cc1ccc2oc3cc(Cl)ccc3c(=O)c2c1.Cl` (stereo not given) was tested, and the Activity [1] was “inactive”, the Neurotoxicity [2] was “Not Active” and the Activity [3] was “inactive”. For the same molecule, the Activity [4] was “inactive”, the Neurotoxicity [5] was “Not Active” and the Activity [7] was “inactive”. The Activity [8] was “inactive”, the Activity [9] was “inactive” and the Activity [10] was “inactive”. The Activity [11] was “inactive”, the Activity [12] was “inactive” and the Activity [13] was “inactive”. For the same molecule, the Neurotoxicity [16] was “Neurotoxic”, the Activity [15] was “Active” and the Neurotoxicity [17] was “Neurotoxic”.

In the case of `CCOC(=O)CNC(=O)c1ccc2oc3ccccc3c(=O)c2c1`, the Activity [1] is reported as “inactive”, the Neurotoxicity [2] is reported as “Not Active” and the Activity [3] is reported as “inactive”. For the same molecule, the Activity [4] was “inactive”, the Neurotoxicity [5] was “Not Active” and the Activity [6] was “inactive”. The Activity [7] was “inactive”, the Activity [8] was “inactive” and the Activity [9] was “inactive”. The Activity [10] was “inactive”, the Activity [11] was “inactive” and the Activity [12] was “inactive”. The Activity [13] was “inactive”, the Neurotoxicity [18] was “Not Active” and the Neurotoxicity [16] was “Not Active”. The Neurotoxicity [14] was “Not Active”, the Activity [15] was “inactive” and the Neurotoxicity [17] was “Not Active”.

For `C[C@@H](CO)N(C)Cc1ccc2oc3cc(Cl)ccc3c(=O)c2c1`, the Activity [1] was “Active”, the Activity [3] was “inactive” and the Activity [4] was “inactive”. For the same molecule, the Activity [6] was “Active”, the Activity [7] was “inactive” and the Activity [8] was “inactive”. For the same molecule, the Activity [9] was “inactive”, the Activity [10] was “inactive” and the Activity [12] was “inactive”. For the same molecule, the Activity [13] was “inactive”, the Neurotoxicity [16] was “Neurotoxic” and the Neurotoxicity [14] was “Not Active”. For the same molecule, the Activity [15] was “Active” and the Neurotoxicity [17] was “Neurotoxic”.

For `CC[C@H](CO)NCc1ccc2oc3cc(Cl)ccc3c(=O)c2c1`, the Activity [1] was “Active”, the Neurotoxicity [2] was “Not Active” and the Activity [3] was “inactive”. The Activity [4] was “inactive”, the Neurotoxicity [5] was “Not Active” and the Activity [7] was “inactive”. The Activity [8] was “inactive”, the Activity [9] was “inactive” and the Activity [10] was “inactive”. The Activity [11] was “inactive”, the Activity [12] was “inactive” and the Activity [13] was “inactive”. The Neurotoxicity [16] was “Neurotoxic” and the Activity [15] was “Active”.

For `CC(CO)NC(=O)c1ccc2oc3cc(Cl)ccc3c(=O)c2c1` (racemic), the Activity [1] was “inactive”, the Activity [3] was “inactive” and the Activity [4] was “inactive”. The Neurotoxicity [5] was “Not Active”, the Activity [6] was “inactive” and the Activity [7] was “inactive”. For the same molecule, the Activity [8] was “inactive”, the Activity [9] was “inactive” and the Activity [10] was “inactive”. The Activity [11] was “inactive”, the Activity [12] was “inactive” and the Activity [13] was “inactive”. For the same molecule, the Neurotoxicity [18] was “Not Active”, the Neurotoxicity [16] was “Not Active” and the Neurotoxicity [14] was “Not Active”. For the same molecule, the Activity [15] was “inactive” and the Neurotoxicity [17] was “Not Active”.

With `O=C(N[C@@H]1CCCC[C@H]1O)c1ccc2oc3ccccc3c(=O)c2c1` (racemic) the Activity [1] was “inactive”, the Neurotoxicity [2] was “Not Active” and the Activity [3] was “inactive”. The Activity [4] was “inactive”, the Neurotoxicity [5] was “Not Active” and the Activity [6] was “inactive”. For the same molecule, the Activity [7] was “inactive”, the Activity [8] was “inactive” and the Activity [9] was “inactive”. For the same molecule, the Activity [10] was “inactive”, the Activity [12] was “inactive” and the Activity [13] was “inactive”. The Neurotoxicity [18] was “Not Active”, the Neurotoxicity [14] was “Not Active” and the Activity [15] was “inactive”. For the same molecule, the Neurotoxicity [17] was “Not Active”.

In the case of `O=C(NCCCCO)c1ccc2oc3ccccc3c(=O)c2c1`, the Activity [1] is reported as “inactive”, the Neurotoxicity [2] is reported as “Not Active” and the Activity [3] is reported as “inactive”. The Activity [4] was “inactive”, the Neurotoxicity [5] was “Not Active” and the Activity [6] was “inactive”. The Activity [7] was “inactive”, the Activity [8] was “inactive” and the Activity [9] was “inactive”. For the same molecule, the Activity [10] was “inactive”, the Activity [11] was “inactive” and the Activity [12] was “inactive”. The Activity [13] was “inactive”, the Neurotoxicity [18] was “Not Active” and the Neurotoxicity [16] was “Not Active”. For the same molecule, the Neurotoxicity [14] was “Not Active”, the Activity [15] was “inactive” and the Neurotoxicity [17] was “Not Active”.
